According to paper PMC4777262 (Pharmacology Research & Perspectives, 2016):

Assays:
[1] = molecular target: IMPDH2 (Homo sapiens, UniProt P12268); test: spectrophotometric NADH production at […] nm; format: biochemical
[2] = molecular target: IMPDH1 (Homo sapiens, UniProt P20839); test: spectrophotometric NADH production at […] nm; format: biochemical
Sequence of IMPDH1 (P20839 2-514): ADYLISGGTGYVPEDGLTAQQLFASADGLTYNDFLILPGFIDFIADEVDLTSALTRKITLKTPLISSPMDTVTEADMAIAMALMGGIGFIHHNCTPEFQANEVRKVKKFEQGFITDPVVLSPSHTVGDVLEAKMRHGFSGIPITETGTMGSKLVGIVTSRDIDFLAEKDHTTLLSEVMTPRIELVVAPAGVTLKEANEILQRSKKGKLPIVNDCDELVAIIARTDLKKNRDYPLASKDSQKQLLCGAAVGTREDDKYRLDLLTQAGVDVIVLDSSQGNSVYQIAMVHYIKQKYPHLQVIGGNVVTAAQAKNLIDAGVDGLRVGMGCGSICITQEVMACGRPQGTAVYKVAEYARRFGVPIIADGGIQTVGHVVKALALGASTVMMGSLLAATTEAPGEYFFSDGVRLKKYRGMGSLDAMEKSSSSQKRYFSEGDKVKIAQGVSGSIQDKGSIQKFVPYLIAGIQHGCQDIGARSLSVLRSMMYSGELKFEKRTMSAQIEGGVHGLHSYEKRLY

Sequence of IMPDH2 (P12268 2-514): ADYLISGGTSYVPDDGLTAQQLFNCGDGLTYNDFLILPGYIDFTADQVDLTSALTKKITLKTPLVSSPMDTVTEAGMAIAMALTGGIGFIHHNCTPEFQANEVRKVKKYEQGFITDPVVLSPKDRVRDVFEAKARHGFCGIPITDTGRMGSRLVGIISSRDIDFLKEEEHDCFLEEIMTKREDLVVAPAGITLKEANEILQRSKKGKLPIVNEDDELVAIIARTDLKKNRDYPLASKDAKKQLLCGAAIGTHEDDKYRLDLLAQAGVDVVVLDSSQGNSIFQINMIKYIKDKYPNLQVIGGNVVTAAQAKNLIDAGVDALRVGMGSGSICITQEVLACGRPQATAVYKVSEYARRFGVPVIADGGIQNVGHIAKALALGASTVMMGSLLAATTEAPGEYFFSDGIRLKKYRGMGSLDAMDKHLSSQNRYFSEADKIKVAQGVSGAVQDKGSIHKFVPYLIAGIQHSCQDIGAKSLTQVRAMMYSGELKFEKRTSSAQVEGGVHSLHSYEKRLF

| IC50 [1] [µM] | IC50 [2] [µM] | SMILES |
| --- | --- | --- |
| 0.0318 ± 0.0056 | 0.029 ± 0.0103 | NC(=O)c1ncn([C@@H]2O[C@H](COP(=O)(O)O)[C@@H](O)[C@H]2O)c1O [FF‐10501RMP] |
|  | 0.0264 ± 0.0015 | COc1c(C)c2c(c(O)c1C/C=C(\C)CCC(=O)O)C(=O)OC2 [Mycophenolic acid, reference compound] |
